Test results reported in patent US20130005568A1, “SAFENED HERBICIDAL MIXTURES” (E.I. DU PONT DE NEMOURS AND COMPANY, priority 2011, published 2013).

Columns and labels:
[1] = tested on: Pioneer 39K40 hybrid maize; assay: Test A: visual plant response rating, postemergence herbicide treatments alone and with Compound 1; format: in vivo, Zea mays L. spp. indentata Sturt.; conditions: Compound 1 alone 125 g ai/ha; Test A
Protocol: (§1) For all of the following biological tests, plant response ratings were based on a 0-100 scale where zero is growth equivalent to that of untreated plants (no plant response) and 100 represents no additional growth occurring after herbicide treatment.
Pioneer 39K40 hybrid maize used in this test (and also Tests B and C) is particularly sensitive to herbicides that inhibit the acetohydroxy acid synthase enzyme. Herbicide mixtures were dissolved/dispersed in a non-phytotoxic liquid carrier and were sprayed postemergence to Pioneer 39K40 hybrid maize (Zea mays L. spp. indentata Sturt.) in the third collar growth stage (extended leaf height was 50-60 cm). Treated plants were grown under greenhouse conditions for two weeks before visual evaluations of plant responses were recorded.

[2] = tested on: spring barley; assay: Test E: postemergence plant response rating; format: in vivo, Hordeum vulgare L.; conditions: Compound 1 alone 125 g ai/ha; Test E plants
Description: as §1
(§2) Herbicide mixtures were formulated, dissolved/dispersed in water containing 0.25% non-ionic surfactant, sprayed postemergence to the crops: winter wheat (Triticum aestivum L.), spring wheat (Triticum aestivum L.), winter barley (Hordeum vulgare L.) and spring barley (Hordeum vulgare L.), and the weeds: blackgrass (Alopecurus myosuroides Huds.), lambsquarters (Chenopodium album L.) and pigweed (Amaranthus retroflexus L.). Treated plants were grown under greenhouse conditions for two weeks before visual evaluations of plant responses were recorded.

[3] = tested on: winter barley; assay: Test E: postemergence plant response rating; format: in vivo, Hordeum vulgare L.; conditions: Compound 1 alone 125 g ai/ha; Test E plants
Description: as §1, §2

[4] = tested on: blackgrass; assay: Test E: postemergence plant response rating; format: in vivo, Alopecurus myosuroides Huds.; conditions: Compound 1 alone 125 g ai/ha; Test E plants
Description: as §1, §2

[5] = tested on: lambsquarters; assay: Test E: postemergence plant response rating; format: in vivo, Chenopodium album L.; conditions: Compound 1 alone 125 g ai/ha; Test E plants
Description: as §1, §2

[6] = tested on: pigweed; assay: Test E: postemergence plant response rating; format: in vivo, Amaranthus retroflexus L.; conditions: Compound 1 alone 125 g ai/ha; Test E plants
Description: as §1, §2

[7] = tested on: blackgrass; assay: Test F: preemergence plant response rating; format: in vivo, Alopecurus myosuroides Huds; conditions: Compound 1 alone 125 g ai/ha; Test F plants
Description: as §1
Herbicide mixtures were formulated, dissolved/dispersed in water, and sprayed preemergence to the crops: winter wheat (Triticum aestivum L.) and winter barley (Hordeum vulgare L.), and the weed: blackgrass (Alopecurus myosuroides Huds). Treated plants were grown under greenhouse conditions for three weeks before visual evaluations of plant responses were recorded.

[8] = tested on: Bermudagrass; assay: Test G: turf grass and weed postemergence plant response rating; format: in vivo, Cynodon dactylon (L.) Pers.; conditions: Compound 1 alone 125 g ai/ha; Test G plants
Description: as §1
Plants of the turf grass species: zoysia (Zoysia japonica Steud.), bermudagrass (Cynodon dactylon (L.) Pers.), tall fescue (Festuca arundinacea Shreib.), creeping bentgrass (Agrostis stoonoifera L.), perennial ryegrass (Lolium perenne L.) and hard fescue (Festuca species) were grown under greenhouse conditions for four months. Plants were clipped as needed to plant heights of 5-10 cm. […] Herbicide mixtures were formulated, dissolved/dispersed in water containing 0.25% non-ionic surfactant, and sprayed postemergence to these turf grasses and weeds. Treated plants were grown under greenhouse conditions for three weeks before visual evaluations of plant responses were recorded.

[9] = tested on: Chickweed; assay: as above; format: in vivo, Stellaria media (L.) Vill.; conditions: Compound 1 alone 125 g ai/ha; Test G plants
Description: as §1
(§3) Plants of the turf grass species: zoysia (Zoysia japonica Steud.), bermudagrass (Cynodon dactylon (L.) Pers.), tall fescue (Festuca arundinacea Shreib.), creeping bentgrass (Agrostis stoonoifera L.), perennial ryegrass (Lolium perenne L.) and hard fescue (Festuca species) were grown under greenhouse conditions for four months. Plants were clipped as needed to plant heights of 5-10 cm. Weeds typically found in turf: annual bluegrass (Poa annua L.), common chickweed (Stellaria media (L.) Vill.), large crabgrass (Digitaria sanguinales (L.) Scop.), dandelion (Taraxacum officinale Weber in Wiggers), goosegrass (Eleusine indica (L.) Gaertn.), henbit (Lamium amplexicaule L.), venice mallow (Hibiscus trionium L.) and purple nutsedge (Cyperus rotundus L.) were also grown under greenhouse conditions so that plants were 5-20 cm tall when they were treated. Herbicide mixtures were formulated, dissolved/dispersed in water containing 0.25% non-ionic surfactant, and sprayed postemergence to these turf grasses and weeds. Treated plants were grown under greenhouse conditions for three weeks before visual evaluations of plant responses were recorded.

[10] = tested on: Dandelion; assay: as above; format: in vivo, Taraxacum officinale Weber in Wiggers; conditions: Compound 1 alone 125 g ai/ha; Test G plants
Description: as §1, §3

[11] = tested on: Goosegrass; assay: as above; format: in vivo, Eleusine indica (L.) Gaertn.; conditions: Compound 1 alone 125 g ai/ha; Test G plants
Description: as §1, §3

[12] = tested on: Henbit; assay: as above; format: in vivo, Lamium amplexicaule L.; conditions: Compound 1 alone 125 g ai/ha; Test G plants
Description: as §1, §3

[13] = tested on: Purple nutsedge; assay: as above; format: in vivo, Cyperus rotundus L.; conditions: Compound 1 alone 125 g ai/ha; Test G plants
Description: as §1, §3

[14] = tested on: Surinam grass; assay: Test K: pasture grass postemergence plant response rating, field conditions; format: in vivo, Brachiaria decumbens Stapf; conditions: Compound 1 alone 140 g ai/ha; Test K plants
Description: as §1
(§4) Herbicide mixtures were formulated, dissolved/dispersed in water containing 0.25% non-ionic surfactant, and sprayed postemergence to the pasture grasses: Surinam grass (Brachiaria decumbens Stapf), palisade grass (Brachiaria brizantha (Hochst. ex A. Rich) Stapf) and Alexandergrass (Brachiaria plantaginea (Link) A. S. Hitchc.) approximately 10-30 cm tall (extended leaf height). This test was conducted under field conditions. Visual evaluations of plant responses were recorded four weeks after the plants were treated.

[15] = tested on: palisade grass; assay: as above; format: in vivo, Brachiaria brizantha (Hochst. ex A. Rich) Stapf; conditions: Compound 1 alone 140 g ai/ha; Test K plants
Description: as §1, §4

Measured: injury, Compound 1 alone

Cc1ccccc1S(=O)(=O)NC(N)=O [Compound 1, N-(aminocarbonyl)-2-methylbenzenesulfonamide]
no injury: all assays above
